The numbers were not newly measured in patent US20040048853A1, “Compounds, compositions, and methods” (priority 2002, published 2004), which cites them from elsewhere.

For orientation: GI50 means the concentration giving 50% growth inhibition.

The subject of the data set is A549 cells.

Turning to `O=c1[nH]cc(F)c(=O)[nH]1` [5-fluorouracil], the GI50 is 1000 nM.
`COc1cccc2c1C(=O)c1c(O)c3c(c(O)c1C2=O)C[C@@](O)(C(=O)CO)C[C@@H]3O[C@H]1C[C@H](N)[C@H](O)[C@H](C)O1` [doxorubicin]: the 50% growth inhibitory concentration (GI50) is 63 nM.
Turning to `NC(=O)NO` [hydroxyurea], the GI50 was 500000 nM.
On to `CC(=O)O[C@H]1C(=O)[C@@]2(C)[C@H]([C@H](OC(=O)c3ccccc3)[C@]3(O)C[C@H](OC(=O)[C@H](O)[C@@H](NC(=O)c4ccccc4)c4ccccc4)C(C)=C1C3(C)C)[C@]1(OC(C)=O)CO[C@@H]1C[C@@H]2O` [paclitaxel], for which the GI50 is 4 nM.
